Laboratory results published in patent publication US10563272B2, “Compositions comprising Metarhizium fungi and use thereof as a pesticide” (Cotton Research and Development Corporation, priority 2015, dated 2020).

Key:
spiders = experiment: Rate trial on conventional cotton, Norwood 2012 (Example 10): spiders; assay type: in vivo, Lycosa spp., Oxyopes spp., Salticidae spp., Araneus spp.; details: P>0.05
Method: This trial was conducted on commercial conventional cotton crops on a farm at Norwood (29° 28'S, 149° 50′E) near Moree, NSW, from 28 Feb. to 21 Mar. 2012. The cotton used for the trial was at the early squaring stage, when it was attractive to green mirids (Khan et al. 2004).
(§1) The efficacy of the following treatments against green mirids and predatory insects were evaluated: • 1. 250 mL/ha DAT 511 spore in oil (1×10^7 spores/ml); • 2. 500 mL/ha DAT 511 spore in oil (1×10^7 spores/ml); • 3. 1 L/ha DAT 511 spore in oil (1×10^7 spores/ml); • 4. 62.5 mL/ha of Fipronil; and • 5. Unsprayed (negative control).
(§2) The treatment plots were arranged in a randomized complete block design with six replicates per treatment. Each replicated plot measured 40 m wide (40 rows) and 90 m long.
Foliar application of each treatment was made on 28 Feb. (for both green mirids and beneficial insects) and 13 Mar. […]
Pre-treatment counts of adult and nymph green mirids, predatory beetles, predatory bugs, predatory lacewings and spiders were made by visual inspection of whole cotton plants. Both adults and nymphs of beneficial insects were counted. Plants were assessed in randomly selected one-metre lengths of row of each treatment replicate (i.e. 6 m per treatment). […] Data are expressed as numbers of green mirid adults and nymphs counted per metre per treatment.

[1] = test system: green mirid adults and nymphs; experiment: Bollgard II cotton, Auscott-Togo 2012-13, Field 77 (Experiment 1): green mirids; assay type: in vivo, Creontiades dilutus; details: 62.5 mL/ha
Method: Two separate trials (Experiment 1 in Field 77; Experiment 2 in Field 63) were conducted in Bollgard II cotton crops on a commercial cotton farm at Auscott-Togo near Narrabri, New South Wales from 11 Feb. to 5 Mar. 2013 (Field 77) and 19 Feb. to 6 Mar. 2013 (Field 63). The cotton used for each of the trials was at the late squaring to pod setting and maturation stages which was fairly attractive to green mirids.
as §1, with “In both trials, the” for “The”, “was” for “were”, “fipronil;” for “Fipronil;”
as §2
Foliar application of each treatment was made on 28 Feb. (for both green mirids and beneficial insects) and 13 Mar. 2012 (for beneficial insects alone) using a ground spray rig fitted with flat fan nozzles to achieve a droplet size of 200 μm. The treatment was applied during the mornings when temperatures were between 20° C. and 28° C. The timing of treatment was based on the IPM Guidelines and recommendations by CottonLogic to use an economic threshold of 0.5 green mirids per metre (Deutscher and Wilson 1999; Khan et al. 2004).
Pre-treatment counts of green mirid adults and nymphs, predatory beetles, predatory bugs, predatory lacewings and spiders were made by visual inspection of whole cotton plants. Both adults and nymphs of beneficial insects were counted. Plants were assessed in randomly selected one-metre lengths of row of each replicate (i.e. 6 m per treatment). Post-treatment counts were made 3, 7, 14 and 21 days after treatment. Data are expressed as numbers of green mirid adults and nymphs counted per metre for each treatment.

predatory bugs = experiment: Rate trial on conventional cotton refuge crops, Undabri 2012 (Example 12): predatory bugs; assay type: in vivo, Hemiptera (Nabidae, Lygaeidae, Pentatomidae); details: DAT 511 500 mL and 1.0 L/ha (P<0.001 versus 250 mL/ha and unsprayed); fipronil 62.5 mL/ha
Method: This trial was conducted using commercial conventional cotton refuge crops at Undabri in Goondiwindi (28° 55'S, 150° 31′E) from 14 Feb. to 6 Mar. 2012.
as §1, with “mirids, green vegetable bugs” for “mirids”, “was assessed:” for “were evaluated:”, “fipronil;” for “of Fipronil;”
The plots were arranged in a randomized complete block design with three replicates per treatment. Each replicated plot measured 8 m (8 rows) wide and 250 m long.
Foliar applications of each treatment were made on 14 Feb. 2012 using a ground spray rig fitted with flat fan nozzles to achieve a droplet size of 200 μm. All insecticide formulations were water miscible. All treatments were applied using a spray volume of 100 L/ha. The untreated (negative control) plot was left unsprayed and the plot treated with synthetic insecticide received two applications similar to, and on the same date as, the plots treated with the fungus.
For each replicate, visual counts of adults and nymphs of green mirids, green vegetable bugs (GVB), apple dimpling bugs and predatory insects on whole cotton plants were made in a randomly selected 1 m length of row of cotton plants (i.e. 6 m per treatment). […]

Structure (SMILES): N#Cc1nn(-c2c(Cl)cc(C(F)(F)F)cc2Cl)c(N)c1[S+]([O-])C(F)(F)F (stereo not shown) [fipronil]
- number of spiders versus unsprayed (control) plots (spiders): No significant difference
- No. green mirid adults and nymphs per meter ([1]; 3 DAT): 1.33 ± 0.33 a per meter
- No. green mirid adults and nymphs per meter ([1]; 7 DAT): 0.00 ± 0.00 b per meter
- No. green mirid adults and nymphs per meter ([1]; 14 DAT): 0.00 ± 0.00 a per meter
- No. green mirid adults and nymphs per meter ([1]; 21 DAT): 0.00 ± 0.00 a per meter
- No. green mirid adults and nymphs per meter ([1]; pre-spray counts): 4.33 ± 0.67 a per meter
- effect on number of predatory bugs per metre (predatory bugs): significantly lower
